Data as given in ChEMBL document CHEMBL1143276, “Synthesis and antimicrobial activities of halogenated bis(hydroxyphenyl)methanes” (2009).
Converted amounts (≈) assume the structure as drawn.

Tests used:
Aspergillus fumigatus = assay: Antifungal activity against Aspergillus fumigatus HIC 6094 after 48 to 72 hrs; assay type: functional
Proteus vulgaris = assay: Antibacterial activity against Proteus vulgaris ATCC 3851 after 24 hrs; assay type: functional; settings: ATCC 3851, 24 h
Salmonella typhimurium = assay: Antibacterial activity against Salmonella Typhimurium ATCC 14028 after 24 hrs; assay type: functional, Salmonella enterica subsp. enterica serovar Typhimurium; settings: Salmonella enterica, ATCC 14028, 24 h
Trichophyton rubrum = assay: Antifungal activity against Trichophyton rubrum IFO 9185 after 48 to 72 hrs; assay type: functional
Bacillus subtilis = assay: Antibacterial activity against Bacillus subtilis ATCC 6633 after 24 hrs; assay type: functional; settings: ATCC 6633, 24 h
Candida albicans = assay: Antifungal activity against Candida albicans ATCC 10231 after 48 to 72 hrs; assay type: functional
Escherichia coli = assay: Antibacterial activity against Escherichia coli ATCC 25922 after 24 hrs; assay type: functional; settings: ATCC 25922, 24 h
[1] = tested on: Trichophyton mentagrophytes; assay: Antifungal activity against Trichophyton mentagrophytes IFO 40996 after 48 to 72 hrs; assay type: functional
Micrococcus luteus = assay: Antibacterial activity against Micrococcus luteus […] after 24 hrs; assay type: functional
Staphylococcus aureus = assay: Antibacterial activity against Staphylococcus aureus ATCC 6538p after 24 hrs; assay type: functional

`Oc1c(Br)cc(Br)cc1Cc1cc(Br)cc(Br)c1O` showed an MIC (Aspergillus fumigatus) of over 100 µg/mL, an MIC (Proteus vulgaris) of 1.56 µg/mL (≈ 3.02 µM) and an MIC (Salmonella typhimurium) of 3.12 µg/mL (≈ 6.05 µM). The MIC (Trichophyton rubrum) was over 100 µg/mL, the MIC (Bacillus subtilis) was 1.56 µg/mL (≈ 3.02 µM) and the MIC (Candida albicans) was over 100 µg/mL. It also gave an MIC (Escherichia coli) of over 100 µg/mL, an MIC [1] of over 100 µg/mL and an MIC (Micrococcus luteus) of 1.56 µg/mL (≈ 3.02 µM). The MIC (Staphylococcus aureus) was 1.56 µg/mL (≈ 3.02 µM).

With `Oc1cc(Cl)c(Cc2cc(O)c(O)c(Cl)c2Cl)cc1O` the MIC (Aspergillus fumigatus) was over 100 µg/mL, the MIC (Proteus vulgaris) was 25 µg/mL (≈ 74.5 µM) and the MIC (Salmonella typhimurium) was 25 µg/mL (≈ 74.5 µM). The MIC (Trichophyton rubrum) was over 100 µg/mL, the MIC (Bacillus subtilis) was 25 µg/mL (≈ 74.5 µM) and the MIC (Candida albicans) was 100 µg/mL (≈ 298 µM). It also gave an MIC (Escherichia coli) of 100 µg/mL (≈ 298 µM), an MIC [1] of 25 µg/mL (≈ 74.5 µM) and an MIC (Micrococcus luteus) of 12.5 µg/mL (≈ 37.3 µM). It also gave an MIC (Staphylococcus aureus) of 12.5 µg/mL (≈ 37.3 µM).

With `C[C@@H]1[C@H](O)[C@@H](C)/C=C/C=C/C=C/C=C/C=C/C=C/C=C/[C@H](O[C@@H]2O[C@H](C)[C@@H](O)[C@H](N)[C@@H]2O)C[C@@H]2O[C@](O)(C[C@@H](O)C[C@@H](O)[C@H](O)CC[C@@H](O)C[C@@H](O)CC(=O)O[C@H]1C)C[C@H](O)[C@H]2C(=O)O` [AMPHOTERICIN B] the MIC (Aspergillus fumigatus) was 3.12 µg/mL (≈ 3.38 µM), the MIC (Trichophyton rubrum) was 3.12 µg/mL (≈ 3.38 µM) and the MIC (Candida albicans) was 6.25 µg/mL (≈ 6.76 µM). For the same molecule, the MIC [1] was 3.12 µg/mL (≈ 3.38 µM).

Molecule `Oc1cc(Cc2c(Br)c(O)c(O)c(Br)c2Br)c(Br)c(Br)c1O` has an MIC (Aspergillus fumigatus) of 3.12 µg/mL (≈ 4.98 µM), an MIC (Proteus vulgaris) of 12.5 µg/mL (≈ 19.9 µM) and an MIC (Salmonella typhimurium) of 25 µg/mL (≈ 39.9 µM). For the same molecule, the MIC (Trichophyton rubrum) was 1.56 µg/mL (≈ 2.49 µM), the MIC (Bacillus subtilis) was 25 µg/mL (≈ 39.9 µM) and the MIC (Candida albicans) was 6.25 µg/mL (≈ 9.97 µM). It also gave an MIC (Escherichia coli) of 50 µg/mL (≈ 79.8 µM), an MIC [1] of 1.56 µg/mL (≈ 2.49 µM) and an MIC (Micrococcus luteus) of 25 µg/mL (≈ 39.9 µM). For the same molecule, the MIC (Staphylococcus aureus) was 25 µg/mL (≈ 39.9 µM).

With `Oc1cc(Cc2cc(O)c(O)c(Cl)c2Cl)c(Cl)c(Cl)c1O` the MIC (Aspergillus fumigatus) was 50 µg/mL (≈ 135 µM), the MIC (Proteus vulgaris) was 25 µg/mL (≈ 67.6 µM) and the MIC (Salmonella typhimurium) was 25 µg/mL (≈ 67.6 µM). The MIC (Trichophyton rubrum) was 50 µg/mL (≈ 135 µM), the MIC (Bacillus subtilis) was 25 µg/mL (≈ 67.6 µM) and the MIC (Candida albicans) was 50 µg/mL (≈ 135 µM). For the same molecule, the MIC (Escherichia coli) was 50 µg/mL (≈ 135 µM), the MIC [1] was 3.12 µg/mL (≈ 8.43 µM) and the MIC (Micrococcus luteus) was 25 µg/mL (≈ 67.6 µM). For the same molecule, the MIC (Staphylococcus aureus) was 25 µg/mL (≈ 67.6 µM).

In the case of `Oc1cc(Cc2cc(O)c(O)c(Br)c2Br)c(Br)c(Br)c1O`, the MIC (Aspergillus fumigatus) is reported as 12.5 µg/mL (≈ 22.8 µM), the MIC (Proteus vulgaris) is reported as 25 µg/mL (≈ 45.6 µM) and the MIC (Salmonella typhimurium) is reported as 25 µg/mL (≈ 45.6 µM). The MIC (Trichophyton rubrum) was 12.5 µg/mL (≈ 22.8 µM), the MIC (Bacillus subtilis) was 25 µg/mL (≈ 45.6 µM) and the MIC (Candida albicans) was 25 µg/mL (≈ 45.6 µM). For the same molecule, the MIC (Escherichia coli) was 50 µg/mL (≈ 91.3 µM), the MIC [1] was 1.56 µg/mL (≈ 2.85 µM) and the MIC (Micrococcus luteus) was 25 µg/mL (≈ 45.6 µM). It also gave an MIC (Staphylococcus aureus) of 25 µg/mL (≈ 45.6 µM).

Work on `Oc1cc(Cl)c(Cc2cc(O)c(O)cc2Cl)cc1O` yielded an MIC (Aspergillus fumigatus) of over 100 µg/mL, an MIC (Proteus vulgaris) of 50 µg/mL (≈ 166 µM) and an MIC (Salmonella typhimurium) of 50 µg/mL (≈ 166 µM). The MIC (Trichophyton rubrum) was over 100 µg/mL, the MIC (Bacillus subtilis) was 50 µg/mL (≈ 166 µM) and the MIC (Candida albicans) was over 100 µg/mL. For the same molecule, the MIC (Escherichia coli) was over 100 µg/mL, the MIC [1] was 50 µg/mL (≈ 166 µM) and the MIC (Micrococcus luteus) was 25 µg/mL (≈ 83 µM). For the same molecule, the MIC (Staphylococcus aureus) was 50 µg/mL (≈ 166 µM).

`Oc1ccc(Cc2cc(O)c(O)cc2Cl)cc1O` showed an MIC (Aspergillus fumigatus) of over 100 µg/mL, an MIC (Proteus vulgaris) of over 100 µg/mL and an MIC (Salmonella typhimurium) of over 100 µg/mL. The MIC (Trichophyton rubrum) was over 100 µg/mL, the MIC (Bacillus subtilis) was over 100 µg/mL and the MIC (Candida albicans) was over 100 µg/mL. For the same molecule, the MIC (Escherichia coli) was over 100 µg/mL, the MIC [1] was over 100 µg/mL and the MIC (Micrococcus luteus) was 100 µg/mL (≈ 375 µM). The MIC (Staphylococcus aureus) was over 100 µg/mL.

`CC1(C)S[C@@H]2[C@H](NC(=O)[C@H](N)c3ccccc3)C(=O)N2[C@H]1C(=O)O` [AMPICILLIN] gave an MIC (Proteus vulgaris) of 3.12 µg/mL (≈ 8.93 µM), an MIC (Salmonella typhimurium) of 3.12 µg/mL (≈ 8.93 µM) and an MIC (Bacillus subtilis) of 1.56 µg/mL (≈ 4.46 µM). For the same molecule, the MIC (Escherichia coli) was 12.5 µg/mL (≈ 35.8 µM), the MIC (Micrococcus luteus) was 1.56 µg/mL (≈ 4.46 µM) and the MIC (Staphylococcus aureus) was 1.56 µg/mL (≈ 4.46 µM).

In the case of `Oc1ccc(Cl)cc1Cc1cc(Cl)ccc1O` [DICHLOROPHEN], the MIC (Aspergillus fumigatus) is reported as 50 µg/mL (≈ 186 µM), the MIC (Proteus vulgaris) is reported as 12.5 µg/mL (≈ 46.4 µM) and the MIC (Salmonella typhimurium) is reported as 6.25 µg/mL (≈ 23.2 µM). It also gave an MIC (Trichophyton rubrum) of 50 µg/mL (≈ 186 µM), an MIC (Bacillus subtilis) of 12.5 µg/mL (≈ 46.4 µM) and an MIC (Candida albicans) of 25 µg/mL (≈ 92.9 µM). The MIC (Escherichia coli) was 100 µg/mL (≈ 372 µM), the MIC [1] was 12.5 µg/mL (≈ 46.4 µM) and the MIC (Micrococcus luteus) was 12.5 µg/mL (≈ 46.4 µM). For the same molecule, the MIC (Staphylococcus aureus) was 12.5 µg/mL (≈ 46.4 µM).

Molecule `Oc1c(Cl)cc(Cl)cc1Cc1cc(Cl)cc(Cl)c1O` has an MIC (Aspergillus fumigatus) of over 100 µg/mL, an MIC (Proteus vulgaris) of 0.78 µg/mL (≈ 2.31 µM) and an MIC (Salmonella typhimurium) of 3.12 µg/mL (≈ 9.23 µM). The MIC (Trichophyton rubrum) was over 100 µg/mL, the MIC (Bacillus subtilis) was 1.56 µg/mL (≈ 4.62 µM) and the MIC (Candida albicans) was 100 µg/mL (≈ 296 µM). It also gave an MIC (Escherichia coli) of over 100 µg/mL, an MIC [1] of 12.5 µg/mL (≈ 37 µM) and an MIC (Micrococcus luteus) of 0.78 µg/mL (≈ 2.31 µM). It also gave an MIC (Staphylococcus aureus) of 0.78 µg/mL (≈ 2.31 µM).

For `Oc1ccc(Cc2cc(O)c(O)cc2Br)cc1O`, the MIC (Aspergillus fumigatus) was over 100 µg/mL, the MIC (Proteus vulgaris) was over 100 µg/mL and the MIC (Salmonella typhimurium) was over 100 µg/mL. It also gave an MIC (Trichophyton rubrum) of over 100 µg/mL, an MIC (Bacillus subtilis) of over 100 µg/mL and an MIC (Candida albicans) of over 100 µg/mL. The MIC (Escherichia coli) was over 100 µg/mL, the MIC [1] was over 100 µg/mL and the MIC (Micrococcus luteus) was 100 µg/mL (≈ 321 µM). For the same molecule, the MIC (Staphylococcus aureus) was over 100 µg/mL.

Work on `Oc1ccccc1Cc1cc(Cl)ccc1O` yielded an MIC (Aspergillus fumigatus) of 50 µg/mL (≈ 213 µM), an MIC (Proteus vulgaris) of 25 µg/mL (≈ 107 µM) and an MIC (Salmonella typhimurium) of 25 µg/mL (≈ 107 µM). The MIC (Trichophyton rubrum) was 50 µg/mL (≈ 213 µM), the MIC (Bacillus subtilis) was 25 µg/mL (≈ 107 µM) and the MIC (Candida albicans) was 50 µg/mL (≈ 213 µM). The MIC (Escherichia coli) was 50 µg/mL (≈ 213 µM), the MIC [1] was 6.25 µg/mL (≈ 26.6 µM) and the MIC (Micrococcus luteus) was 25 µg/mL (≈ 107 µM). For the same molecule, the MIC (Staphylococcus aureus) was 25 µg/mL (≈ 107 µM).

`Oc1cc(Br)c(Cc2cc(O)c(O)cc2Br)cc1O` was tested, and the MIC (Aspergillus fumigatus) was over 100 µg/mL, the MIC (Proteus vulgaris) was 25 µg/mL (≈ 64.1 µM) and the MIC (Salmonella typhimurium) was 25 µg/mL (≈ 64.1 µM). It also gave an MIC (Trichophyton rubrum) of over 100 µg/mL, an MIC (Bacillus subtilis) of 25 µg/mL (≈ 64.1 µM) and an MIC (Candida albicans) of over 100 µg/mL. The MIC (Escherichia coli) was over 100 µg/mL, the MIC [1] was 50 µg/mL (≈ 128 µM) and the MIC (Micrococcus luteus) was 12.5 µg/mL (≈ 32 µM). The MIC (Staphylococcus aureus) was 25 µg/mL (≈ 64.1 µM).

Work on `Brc1cc2c(cc1Cc1cc3c(cc1Br)OCO3)OCO2` yielded an MIC (Aspergillus fumigatus) of over 100 µg/mL, an MIC (Proteus vulgaris) of over 100 µg/mL and an MIC (Salmonella typhimurium) of over 100 µg/mL. The MIC (Trichophyton rubrum) was over 100 µg/mL, the MIC (Bacillus subtilis) was over 100 µg/mL and the MIC (Candida albicans) was over 100 µg/mL. For the same molecule, the MIC (Escherichia coli) was over 100 µg/mL, the MIC [1] was over 100 µg/mL and the MIC (Micrococcus luteus) was over 100 µg/mL. For the same molecule, the MIC (Staphylococcus aureus) was over 100 µg/mL.

In the case of `Oc1ccccc1Cc1cccc(Cl)c1O`, the MIC (Aspergillus fumigatus) is reported as 100 µg/mL (≈ 426 µM), the MIC (Proteus vulgaris) is reported as 100 µg/mL (≈ 426 µM) and the MIC (Salmonella typhimurium) is reported as 100 µg/mL (≈ 426 µM). For the same molecule, the MIC (Trichophyton rubrum) was 100 µg/mL (≈ 426 µM), the MIC (Bacillus subtilis) was 100 µg/mL (≈ 426 µM) and the MIC (Candida albicans) was 50 µg/mL (≈ 213 µM). It also gave an MIC (Escherichia coli) of 100 µg/mL (≈ 426 µM), an MIC [1] of 12.5 µg/mL (≈ 53.3 µM) and an MIC (Micrococcus luteus) of 50 µg/mL (≈ 213 µM). The MIC (Staphylococcus aureus) was 50 µg/mL (≈ 213 µM).
